The values below come from patent US20090156646A1, “PYRIDYLPHENOL COMPOUND AND USE THEREOF” (TAKEDA PHARMACEUTICAL COMPANY LIMITED, priority 2005, published 2009).

Where a name gives a salt, the structure may show the parent alone.

Consider `N#Cc1c(-c2cccc(NC(=O)CCN)c2)cc(-c2ccc(Cl)cc2O)nc1NC(=O)c1cccs1` (as salt: trifluoroacetate) [Example 56, N-{4-[3-(β-alanylamino)phenyl]-6-(4-chloro-2-hydroxyphenyl)-3-cyanopyridin-2-yl}thiophene-2-carboxamide trifluoroacetate], for which the melting point – broadly, the temperature, or range, at which the solid turns liquid – fell in the range of 206 to 209 °C.
In the case of `N#Cc1c(-c2ccc(N)cc2)cc(-c2ccccc2O)nc1NC(=O)c1cccs1` [Example 48, N-[4-(4-aminophenyl)-3-cyano-6-(2-hydroxyphenyl)pyridin-2-yl]thiophene-2-carboxamide], the melting point was in the range of 292 to 293 °C.
With `COc1ccccc1C(=O)Nc1nc(-c2ccc(Cl)cc2O)cc(-c2cccc(NC(=O)CCN)c2)c1C#N.Cl`, the melting point is 233 to 238 °C.
`CN(C(=O)CN)c1cccc(-c2cc(-c3ccccc3O)nc(NC(=O)c3cccs3)c2C#N)c1` (as salt: hydrochloride) [Example 41, N-[3-cyano-4-{3-[glycyl(methyl)amino]phenyl}-6-(2-hydroxyphenyl)pyridin-2-yl]thiophene-2-carboxamide dihydrochloride]: the melting point fell in the range of 198 to 205 °C.
Turning to `Cl.N#Cc1c(-c2cccc(C(=O)N3CCNCC3)c2)cc(-c2ccccc2O)nc1NC(=O)c1cccs1`, the melting point fell in the range of 232 to 236 °C.
`Cl.N#Cc1c(-c2cccc(NC(=O)[C@H]3CCCN3)c2)cc(-c2ccccc2O)nc1NC(=O)c1cccs1`: the melting point lay within 213 to 218 °C.
On to `CC(C)(C)OC(=O)NCCC(=O)Nc1cccc(-c2cc(-c3ccccc3O)nc(NC(=O)c3ccccc3)c2C#N)c1` [Example 30, tert-butyl[3-({3-[2-(benzoylamino)-3-cyano-6-(2-hydroxyphenyl)pyridin-4-yl]phenyl}amino)-3-oxopropyl]carbamate], for which the melting point fell in the range of 220 to 221 °C.
In the case of `CC(=O)NCCC(=O)Nc1cccc(-c2cc(-c3ccc(Cl)cc3O)nc(NC(=O)c3cccs3)c2C#N)c1` [Example 59, N-[4-{3-[(N-acetyl-β-alanyl)amino]phenyl}-6-(4-chloro-2-hydroxyphenyl)-3-cyanopyridin-2-yl]thiophene-2-carboxamide] it was 209 to 210 °C.
In turn, `CNc1cccc(-c2cc(-c3ccccc3O)nc(NC(=O)c3cccs3)c2C#N)c1` [Example 39, N-{3-cyano-6-(2-hydroxyphenyl)-4-[3-(methylamino)phenyl]pyridin-2-yl}thiophene-2-carboxamide] returned a melting point of 227 to 230 °C.
With `Cl.N#Cc1c(-c2ccc(C(=O)NCCN)cc2)cc(-c2ccccc2O)nc1NC(=O)c1cccs1` the figure was 202 to 208 °C.
`CN(C)CC(=O)Nc1cccc(-c2cc(-c3ccc(F)cc3O)nc(NC(=O)c3ccco3)c2CN(C)C)c1` (as salt: hydrochloride) [Example 300, N-[3-[(dimethylamino)methyl]-4-{3-[(N,N-dimethylglycyl)amino]phenyl}-6-(4-fluoro-2-hydroxyphenyl)pyridin-2-yl]-2-furamide dihydrochloride] yielded a melting point of 186 to 194 °C.
With `N#Cc1c(-c2cccc(NC(=O)CN)c2)cc(-c2ccccc2O)nc1NC(=O)c1cccs1` (as salt: hydrochloride) [Example 12, N-[3-cyano-4-[3-(glycylamino)phenyl]-6-(2-hydroxyphenyl)pyridin-2-yl]thiophene-2-carboxamide dihydrochloride] the figure was 210 to 217 °C.
With `N#Cc1c(-c2cccc(NC(=O)CCN)c2)cc(-c2cc(Cl)ccc2O)nc1NC(=O)c1ccccc1` (as salt: trifluoroacetate) [Example 47, N-{4-[3-(β-alanylamino)phenyl]-6-(5-chloro-2-hydroxyphenyl)-3-cyanopyridin-2-yl}benzamide trifluoroacetate] the figure was 205 to 210 °C.
In the case of `N#Cc1c(-c2cccc(NC(=O)[C@H](N)Cc3cnc[nH]3)c2)cc(-c2ccc(Cl)cc2O)nc1NC(=O)c1ccco1` (as salt: hydrochloride) [Example 253, N-{3-[6-(4-chloro-2-hydroxyphenyl)-3-cyano-2-(2-furoylamino)pyridin-4-yl]phenyl}-D-histidinamide dihydrochloride] it was 200 to 206 °C.
With `CC(C)(C)OC(=O)c1c(-c2cccc(NC(=O)CCN)c2)cc(-c2ccccc2O)nc1NC(=O)c1ccccc1` [Example 82, tert-butyl 4-[3-(β-alanylamino)phenyl]-2-(benzoylamino)-6-(2-hydroxyphenyl) nicotinate], the melting point fell in the range of 247 to 249 °C.
For the compound `CN(C)C[C@@H](C(=O)Nc1cccc(-c2cc(-c3ccc(F)cc3O)nc(NC(=O)c3ccco3)c2C#N)c1)N(C)C` (as salt: hydrochloride) [Example 305, N-[3-cyano-4-(3-{[3-(dimethylamino)-N,N-dimethyl-L-alanyl]amino}phenyl)-6-(4-fluoro-2-hydroxyphenyl)pyridin-2-yl]-2-furamide dihydrochloride], the melting point is 195 to 200 °C.
Take `Cl.N#Cc1c(-c2cccc(N3CCCCC3)c2)cc(-c2ccc(F)cc2O)nc1NC(=O)c1ccco1`: the melting point was in the range of 240 to 242 °C.
In the case of `N#Cc1c(-c2cccc(NC(=O)[C@@H](N)CN)c2)cc(-c2ccc(F)cc2O)nc1NC(=O)c1ccco1` (as salt: hydrochloride) [Example 302, N-[4-{3-[(3-amino-L-alanyl)amino]phenyl}-3-cyano-6-(4-fluoro-2-hydroxyphenyl)pyridin-2-yl]-2-furamide dihydrochloride] it was 231 to 240 °C; in that of `CCCNC(=O)c1cccc(-c2cc(-c3ccccc3O)nc(NC(=O)c3cccs3)c2C#N)c1` [Example 34, N-(3-cyano-6-(2-hydroxyphenyl)-4-{3-[(propylamino)carbonyl]phenyl}pyridin-2-yl)thiophene-2-carboxamide], 245 to 246 °C.
In the case of `COc1cccc(O)c1-c1cc(-c2cccc(NC(=O)CCN)c2)c(C#N)c(NC(=O)c2ccccc2)n1` (as salt: trifluoroacetate) [Example 52, N-{4-[3-(β-alanylamino)phenyl]-3-cyano-6-(2-hydroxy-6-methoxyphenyl)pyridin-2-yl}benzamide trifluoroacetate] it was 160 to 167 °C; in that of `NCCC(=O)Nc1cccc(-c2cc(NC(=O)c3cccs3)nc(-c3ccccc3O)c2)c1` (as salt: hydrochloride) [Example 27, N-{4-[3-(β-alanylamino)phenyl]-6-(2-hydroxyphenyl)pyridin-2-yl}thiophene-2-carboxamide dihydrochloride], 214 to 220 °C.
`N#Cc1c(-c2cccc(NC(=O)[C@@H](N)Cc3cnc[nH]3)c2)cc(-c2ccc(Cl)cc2O)nc1NC(=O)c1ccco1` (as salt: hydrochloride) [Example 243, N-{3-[6-(4-chloro-2-hydroxyphenyl)-3-cyano-2-(2-furoylamino)pyridin-4-yl]phenyl}-L-histidinamide dihydrochloride] returned a melting point of 206 to 214 °C.
With `Cl.N#Cc1c(-c2cccc(NC(=O)CC3CCCCN3)c2)cc(-c2ccc(F)cc2O)nc1NC(=O)c1ccco1` (stereo not drawn) [Example 290] the figure was 277 to 278 °C (dec.); with `Cl.N#Cc1c(-c2cccc(NC(=O)[C@@H]3CCCN3)c2)cc(-c2ccccc2O)nc1NC(=O)c1cccs1`, 210 to 218 °C.
